Assay results from PubChem BioAssay (NCI).
Values joined by “and” are separate entries in the source; they are usually repeats but may differ in a detail not shown here. Equal values may be shown once.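 Following 48 hours of exposure in 96-well plates, responses at five concentrations were used to interpolate endpoints linearly. At the GI50, growth is halved. TGI denotes the concentration required for complete inhibition of growth.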

Legend:
Assay in all cases: NCI anticancer screen, dose series, 48 h
[1] = test system: HL-60(TB) leukemia
[2] = test system: SK-OV-3 ovarian
[3] = test system: U251 CNS
[4] = test system: HCT-116 colon
[5] = test system: OVCAR-5 ovarian
[6] = test system: KM12 colon
[7] = test system: TK-10 renal
[8] = test system: HOP-92 NSCLC
[9] = test system: NCI/ADR-RES ovarian
[10] = test system: PC-3 prostate

| Structure (SMILES) | TGI [1] [µM] | TGI [2] [µM] | TGI [3] [µM] | TGI [4] | TGI [5] | TGI [6] [µM] | TGI [7] [µM] | TGI [8] [µM] | GI50 [1] [µM] | GI50 [9] [µM] | TGI [9] | GI50 [2] | GI50 [3] | GI50 [4] | GI50 [10] [µM] | TGI [10] [µM] | GI50 [5] [µM] | GI50 [6] | GI50 [7] | GI50 [8] [µM] |
| --- | --- | --- | --- | --- | --- | --- | --- | --- | --- | --- | --- | --- | --- | --- | --- | --- | --- | --- | --- | --- |
| COc1ccc(/C=C/c2cc(OC)c(OC)c(OC)c2)cc1OC | > 100 | > 100 | > 100 | > 100 µM | > 100 µM | > 100 | > 100 | > 100 | – | – | – | – | – | – | – | – | – | – | – | – |
| NC1=C(O)/C(=N/NS(=O)(=O)c2ccccc2)C(c2ccc3c(c2)OCO3)O1 (stereo not given) | > 100 | > 100 | > 100 | > 100 µM | > 100 µM | > 100 | > 100 | > 100 | – | – | – | – | – | – | – | – | – | – | – | – |
| O=C(N/C(=C\c1cccc([N+](=O)[O-])c1)c1nc2c3c(ccc2[nH]1)C(=O)c1ccccc1C3=O)c1ccccc1 | – | 78 | > 100 | > 100 µM | 90.4 µM | > 100 | 82.2 | > 100 | – | – | – | – | – | – | – | – | – | – | – | – |
| O=[N+]([O-])c1cc(I)cc(/C=N/NS(=O)(=O)c2ccc(F)cc2)c1O | 54.4 | 70.2 | 59.9 | 43.3 µM | > 100 µM | 61.9 | 77.7 | 36.3 | – | – | – | – | – | – | – | – | – | – | – | – |
| Cn1nc(-c2ccccc2)c2c(/C=C/c3ccc(F)cc3)onc2c1=O | > 100 | > 100 | > 100 | > 100 µM | – | – | > 100 | > 100 | – | – | – | – | – | – | – | – | – | – | – | – |
| C=CCN=C1NC(=O)C(CC(=O)Nc2cccc(Cl)c2)S1 (stereo not given) | > 100 | > 100 | > 100 | – | > 100 µM | > 100 | > 100 | – | – | – | – | – | – | – | – | – | – | – | – | – |
| O=C(/C=C/c1ccc(-c2ccccc2)cc1)c1ccccc1 | > 100 | 58.5 | 58.5 | 30.2 µM | 41 µM | 40.6 | 82.6 | 51.7 | – | – | – | – | – | – | – | – | – | – | – | – |
| NC(CCl)=NCC12CC3CC(CC(C3)C1)C2 | 3.78 | 16.7 | 12.1 | 2.56 µM | 11.1 µM | 3.47 | 9.14 | – | 1.06 | 0.625 | 14.4 µM | 4.1 µM | 1.38 µM | 0.41 µM | 2.05 | 13.3 | 3.73 | 0.96 µM | 1.31 µM | – |
| O=C(N/N=C/c1ccc([N+](=O)[O-])cc1)c1ccccc1Nc1ccnc(C(F)(F)F)c1 | 47.3 | 81.4 | > 100 | 70.2 µM | > 100 µM | 55.4 | 20.2 | – | 14.2 | 16.8 | 58.7 µM | 28 µM | 16.6 µM | 20 µM | 12.9 | 29.7 | 24.6 | 2.75 µM | 0.0799 µM | – |
| Cc1cccc2c(=O)c3c(sc12)c(NCCCN)nc1ccccc13 | 3.34 | – | 3.01 | 2.91 µM | 3.03 µM | 3.21 | – | 5.12 | 1.71 | – | – | – | 1.51 µM | 1.48 µM | 1.37 | 3.04 | 1.56 | 1.65 µM | – | 1.53 |
| CC(=O)CCc1ccc(Oc2c3ccccc3nc3occc23)cc1 | 74.5 | 41.4 | 33.8 | 79.5 µM | 38.9 µM | 40 | 43.9 | – | 8.67 | 15.4 | 45.6 µM | 17.8 µM | 13.5 µM | 19.1 µM | 14 | 41 | 19 | 16.1 µM | 15.4 µM | – |
| COC(=O)CCCCCOS(=O)(=O)c1ccc(C)cc1 | > 100 | > 100 | > 100 | > 100 µM | > 100 µM | > 100 | > 100 | > 100 | – | – | – | – | – | – | – | – | – | – | – | – |
| Cc1ccccc1SC(/C=C/NNC1=NC(c2ccccc2)C(c2ccccc2)=NN1)c1ccccc1 (stereo not given) | – | 45.3 | 64.7 | – | > 100 µM | > 100 | 43.2 | 27.7 | – | – | – | – | – | – | – | – | – | – | – | – |
| COc1ccc(C2=NN(C(C)=O)c3nc4ccccc4nc3O2)cc1 | > 100 | – | 61.8 | > 100 µM | – | > 100 | 52.1 | 62.5 | – | – | – | – | – | – | – | – | – | – | – | – |
| Cn1c(=O)nc2n(-c3ccc(F)c(F)c3)c3ccccc3nc-2c1=O | 34.9 | > 100 | 36.2 | 26.5 µM | 37.5 µM | > 100 | > 100 | – | – | – | – | – | – | – | – | – | – | – | – | – |
| Oc1cccc2cccnc12 | – | > 100 | > 100 | 23.1 µM and > 100 µM | 21.1 µM and > 100 µM | > 100 | > 100 | > 100 | – | – | 35.4 µM and > 100 µM and > 32 µM | 42.2 µM and 46.1 µM and > 100 µM | 3.32 µM and 23.8 µM and 5.14 µM | 1.06 µM and 3.42 µM and 1.46 µM | – | – | – | 3.04 µM and 14 µM and 5.1 µM | 51.5 µM and 8.42 µM and 47.7 µM | – |
| CO[C@H]1/C=C/O[C@@]2(C)Oc3c(C)c(O)c4c(O)c(c(/C=N/N5C(C)CN(Cc6ccc(C#N)cc6)CC5C)c(O)c4c3C2=O)NC(=O)/C(C)=C\C=C\[C@H](C)[C@H](O)[C@@H](C)[C@@H](O)[C@@H](C)[C@H](OC(C)=O)[C@@H]1C (stereo not given in full) | 18.6 | 23.4 | 12.2 | 12.7 µM | 18.1 µM | 12.7 | 18.8 | – | 7.19 | 11.7 | 46 µM | 9.55 µM | 6.04 µM | 5.41 µM | – | – | 8.88 | 5.89 µM | 7.92 µM | – |
| Oc1c(CN2CCCCC2)ccc2cccnc12 | 12.8 | 25 | 30.9 | 9.18 µM | 76.9 µM | 19.6 | 42.9 | – | 3.34 | 0.955 | 10.9 µM | 4.33 µM | 3.61 µM | 2.73 µM | 7.12 | > 100 | 5.23 | 3.91 µM | 3.98 µM | – |
| Oc1ccc(O)c(-n2cccn2)c1 | 44.8 | > 100 | > 100 | – | > 100 µM | > 100 | > 100 | 93.2 | – | – | – | – | – | – | – | – | – | – | – | – |
